As usually defined, the IC50 is the concentration needed to halve the response being measured.

Assay [1] deals with T1, thromboxane synthase (Guinea Pig Lung Microsomes) (Cavia porcellus, UniProt H0UT36).
T1 construct: The lungs were removed, freed of trachea and the majority of blood removed by rinsing the lungs with buffer; from tissue; host or cells: lungs of male guinea pigs (microsomes, 110,000 g pellet)
Description: biochemical. The procedure: In said assay procedure, microsomes from guinea pig lung or human platelets are added to an endoperoxide intermediate in prostaglandin biosynthesis and the inhibitor in phosphate buffer solution followed by incubation, extraction and determination of the extent of thromboxane synthase inhibition by TLC with radiochromatographic profile analysis. […]
Isolation of Guinea Pig Lung Microsomes
Four male guinea pigs (.congruent.500 g each) were sacrificed by spinal dislocation. The lungs were removed, freed of trachea and the majority of blood removed by rinsing the lungs with buffer (0.1M phosphate pH 7.5) via the pulmonary artery. The lung tissue (18.3 g total wet wt.), was then minced, suspended in three volumes of buffer and homogenized using, initially, a Brinkmann polytron homogenizer and, finally, a glass-teflon tissue grinder. The homogenate was centrifuged at 12,000 g for 1 hr. and the resultant supernatant recentrifuged at 110,000 g for 1 hr. The 110,000 g pellet was taken up in 10 ml of buffer, divided into 5×2 ml aliquots and stored at -70° until use.
(§1) Low specific activity PGH2 (3.3 μCi/μmole) was obtained from Dr. W. E. M. Lands of the University of Michigan. PGH2 of higher specific activity (16.0 μCi/μmole) was purchased from Ran Biochemicals, Tel-Aviv, Israel.
(§2) The inhibitors tested were prepared as solutions (1-10 mg/ml) in 95% ethanol.
(§3) Assay for Thromboxane Synthase
(§4) To a 12×75 mm tube containing [1-^14 C] PGH2 (2 μg, 0.01 μCi or 0.05 μCi) and inhibitor (1 mM final assay concentration, in 10 μl of ethanol) in 225 μl of phosphate buffer (0.1M, pH 7.5), was added to an aliquot of guinea pig lung microsomes (25 μl, containing 400 μg protein) or an aliquot of human platelet microsomes (25 μl, containing .congruent.[…] protein). The solution was incubated in a 22° water bath for 2 min.; ether (1 ml) and citric acid (25 μMoles) were added, and the tube plunged into an acetone-dry ice bath. The ether extract was transferred to a 1.0 ml Reacti-vial, and the volume reduced under nitrogen to .congruent.50 μl.
(§5) The extract was applied to an I.T.L.C., type SG, glass fiber sheet (Gelman Instrument Co., Ann Arbor, Mich.) and developed in isooctane; methyl ethyl ketone: acetic acid (100:19:1 or 100:9:1) (19). The sheets were air dried and scanned using a Berthold LB 2760 Radiochromatographic Scanner. In certain cases, based on the radiochromatographic profile obtained, the sheets were cut, the appropriate regions placed in scintillation vials, 10 ml of LSC cocktail (Yorktown Research, S. Hackensack, NJ) added, and the relative cpm determined.

Assay [2] concerns the target T2, thromboxane synthase (Human Platelet Microsomes) (Homo sapiens, UniProt P24557).
T2 construct: Platelets were obtained from 320 ml of whole blood and resuspended in 5.0 ml of Krebs-Hensleit buffer; from tissue; host or cells: human platelets (microsomes, 110,000 g pellet)
T2 sequence (P24557 1-533): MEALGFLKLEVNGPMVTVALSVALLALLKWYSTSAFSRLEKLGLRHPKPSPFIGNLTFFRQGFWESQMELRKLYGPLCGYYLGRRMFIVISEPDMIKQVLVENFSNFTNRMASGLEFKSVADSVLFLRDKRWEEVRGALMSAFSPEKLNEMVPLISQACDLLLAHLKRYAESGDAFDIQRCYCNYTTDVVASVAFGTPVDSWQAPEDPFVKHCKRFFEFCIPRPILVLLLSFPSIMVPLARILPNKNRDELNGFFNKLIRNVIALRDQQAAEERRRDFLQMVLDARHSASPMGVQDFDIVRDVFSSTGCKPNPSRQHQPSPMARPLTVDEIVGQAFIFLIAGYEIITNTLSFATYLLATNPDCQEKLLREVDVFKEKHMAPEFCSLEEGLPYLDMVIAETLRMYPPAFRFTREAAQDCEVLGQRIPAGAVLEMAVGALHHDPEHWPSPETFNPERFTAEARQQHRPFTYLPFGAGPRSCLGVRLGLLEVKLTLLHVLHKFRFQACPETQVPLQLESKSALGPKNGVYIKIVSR
The assay is described as follows: Thromboxane synthase inhibition, human platelet microsomes. It is filed as biochemical. The procedure:
In said assay procedure, microsomes from guinea pig lung or human platelets are added to an endoperoxide intermediate in prostaglandin biosynthesis and the inhibitor in phosphate buffer solution followed by incubation, extraction and determination of the extent of thromboxane synthase inhibition by TLC with radiochromatographic profile analysis.
(§6) Determination of Inhibition of Thromboxane Synthase Activity Isolation of Human Platelet Microsomes
Platelets were obtained from 320 ml of whole blood and resuspended in 5.0 ml of Krebs-Hensleit buffer (CA^+2 free). After three consecutive freeze-thawing cycles, homogenization and centrifugation at 12,000 g for 45 min., the 12,000 supernatant was recentrifuged at 110,000 g for 60 min. The resultant pellet was resuspended in phosphate buffer (0.5 ml, 0.1M, pH 7.5) and stored at -70° until use.
as §1, §2, §3, §4, §5

For another assay, the target named is TXA2 Synthase. Description: TXA2 synthase IC50 as listed in Table I (enzyme source not stated). It is filed as biochemical. The procedure: as §6, §3, §4, §5
Assay [3] concerns isolated perfused rat pancreas. The assay is described as follows: Insulin secretion by isolated perfused rat pancreas. The note with it: 10 μM; 16.7 mM glucose; control 1.0 ± 0.04 (n = 5). Set-up: key: insulin AUC ratio: 1st glucose pulse / 2nd pulse with compound. The procedure:
Determination of Insulin-Secretory Activity in the Isolated Perfused Rat Pancreas
Pancreata were obtained from young adult female Charles River rats weighing from 200-300 g. The animals were anaesthesized with sodium pentobarbitol (45 mg/kg), injected intraperitoneally, and the pancreas with its intact vasculature was removed and connected to an extracorporeal perfusion apparatus.
The basic perfusion solution contained: 133 mM NaCl, 4.4 mM KCl, 2.5 mM MgSO4, 2.4 mM Ca gluconate, 1.5 mM KH2 PO4, 29.4 mM NaHCO3, 4% dextran and 0.2% bovine serum albumin and glucose as discussed below. The perfusion flow rate was kept constant at 4 ml/min. After a 15-20 min equilibration period, the experimental protocol was begun. The pancreatic effluent was collected in either one or four-minute fractions.
The perfusion was run in the following sequence:
30 min 16.7 mM glucose-internal control
30 min 16.7 mM glucose and test compound
5 min 20 mM arginine-to check pancreas viability
Test compounds were dissolved in 90% ethanol to a concentration of 25 mM and then diluted in the perfusion buffer to the desired concentration. The perfusion effluent was collected in one or four min fractions-the samples were checked immediately, aliquoted for submission to radioimmunoassay and stored at -20° C. until the time of assay. The radioimmunoassay of insulin was carried out by a back-titration method using a pure rat insulin standard.
To assess the inhibitory activity of the test compounds, an inhibition index was calculated. The inhibition index is derived by comparing the insulin secretion response from treated versus nontreated pancreas preparations. For each preparation, a ratio of insulin secretion was calculated from the area under the insulin secretion curve of the first pulse of 16.7 mM glucose divided by the area under the curve of the second pulse of 16.7 mM glucose containing compound.

Where [4] appears, read: IC50, enzyme source G = Guinea Pig Lung Microsomes.
Where [5] appears, read: enzyme source G = Guinea Pig Lung Microsomes, read-out: IC50.
Where [6] appears, read: enzyme source H = Human Platelet Microsomes, read-out: IC50.
Where [7] appears, read: IC50, enzyme source H = Human Platelet Microsomes.

Where “and” joins values, the source holds several entries; their conditions need not be identical. Identical values can stand only once. Counter-ions that a name gives are not always drawn. Like-named read-outs stand apart in the source and are kept apart here.

T1 sequence (H0UT36 entry or part of it): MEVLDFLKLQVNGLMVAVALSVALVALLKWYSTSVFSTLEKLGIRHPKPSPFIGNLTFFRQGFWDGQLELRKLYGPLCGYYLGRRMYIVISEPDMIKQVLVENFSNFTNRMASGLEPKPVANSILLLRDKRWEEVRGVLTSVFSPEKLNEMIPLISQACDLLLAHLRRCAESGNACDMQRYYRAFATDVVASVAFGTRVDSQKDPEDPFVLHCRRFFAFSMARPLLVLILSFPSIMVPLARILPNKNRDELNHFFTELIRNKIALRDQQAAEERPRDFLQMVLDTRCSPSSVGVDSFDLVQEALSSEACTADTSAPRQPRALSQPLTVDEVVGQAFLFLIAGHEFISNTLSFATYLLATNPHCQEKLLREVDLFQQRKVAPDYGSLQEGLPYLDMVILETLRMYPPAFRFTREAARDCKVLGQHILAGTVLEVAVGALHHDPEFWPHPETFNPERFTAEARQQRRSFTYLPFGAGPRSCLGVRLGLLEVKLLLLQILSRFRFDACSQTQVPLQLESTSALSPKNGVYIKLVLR

In the case of `O=C1C(CC[S+]([O-])c2ccccc2)C(=O)N(c2ccccc2)N1c1ccccc1` (centres unmarked) [1,2-diphenyl-4-[2-[phenylsulfinyl]ethyl]-3,5-pyrazo-lidinedione, reference compound], in assay [1] (setting [4]), the IC50 was ~1 mM.

Turning to `COc1ccc2c(c1)c(CC(=O)O)c(C)n2C(=O)c1ccc(Cl)cc1` [1-(4-chlorobenzoyl)-5-methoxy-2-methyl-1H--indole-3-acetic acid, reference compound], in assay [1] (setting [5]), the IC50 is > 0.1 mM and < 1 mM.

For the compound `CCOc1ccc(-n2ccnc2)cc1` [1-(4-ethoxyphenyl)-1H--imidazole], the IC50 in assay [2] (setting [6]) was ~10 µM. Turning to `COc1ccc(-n2ccnc2)cc1` [1-(4-methoxyphenyl)-1H--imidazole], in assay [2] (setting [6]), the half-maximal inhibitory concentration (IC50) fell in the range of 10 to 100 µM. Consider `O=[N+]([O-])c1ccc(-n2ccnc2)cc1` [1-(4-nitrophenyl)-1H--imidazole], for which the IC50 in assay [1] (setting [5]) is > 0.1 mM and < 1 mM.

For `OC[C@H]1O[C@@H](n2ccnc2)[C@H](O)[C@@H](O)[C@@H]1O` [1-(beta-D-glucopyranosyl)-1H--imidazole], the IC50 in assay [2] (setting [6]) lay within 10 to 100 µM.

With `c1ccc(Cn2ccnc2)cc1` [1-(phenylmethyl)-1H--imidazole], the IC50 in assay [2] (setting [7]) was 10 to 100 µM. Consider `O=[N+]([O-])c1ccc(-n2ccnc2)c([N+](=O)[O-])c1` [1-[2,4-dinitrophenyl]1H--imidazole], for which, in assay [1] (setting [4]), the 50% inhibitory concentration (IC50) was > 0.1 mM and < 1 mM. As to `Clc1ccccc1C(c1ccccc1)(c1ccccc1)n1ccnc1` [1-[(2-chlorophenyl)diphenylmethyl]-1H--imidazole, reference compound], the half-maximal inhibitory concentration (IC50) in assay [2] (setting [7]) is 10 to 100 µM.

Take `CC(=O)n1ccnc1` [1-acetyl-1H--imidazole]: the IC50 in assay [2] (setting [6]) is ~1000 µM.

On to `CCCCn1ccnc1` [1-butyl-1H--imidazole], for which the 50% inhibitory concentration (IC50) in assay [2] (setting [6]) was ~10 µM. Turning to `CCn1ccnc1` [1-ethyl-1H--imidazole], in assay [1] (setting [4]), the half-maximal inhibitory concentration (IC50) was > 1 mM.

With `Cn1ccnc1` [1-methyl-1H--imidazole], in assay [1] (setting [5]), the IC50 is > 1 mM.

For the compound `O=[N+]([O-])c1c[nH]cn1` [1H-- 4-nitroimidazole], the concentration for half-maximal inhibition (IC50) in assay [1] (setting [5]) was > 1 mM. `CC(C)(C(=O)c1cccnc1)c1cccnc1` [2-methyl-1,2-di-3-pyridyl-1-propanone tartrate [1:2], reference compound]: the IC50 in assay [2] (setting [6]) was > 100 µM and < 1000 µM. Still for that read-out and setting: as for `Oc1cccc(-n2ccnc2)c1` [3-(1H--imidazol-1-yl)phenol], the figure is 1 to 10 µM. In the case of `COC(=O)C=Cc1c[nH]cn1` [3-(1H--imidazole-4-yl)-2-propenoic acid methyl ester], the IC50 in assay [1] (setting [5]) is > 0.1 mM and < 1 mM. On the same count and under the same terms, in the case of `O=C1c2ccccc2S(=O)(=O)c2cc(-c3nnn[nH]3)ccc21` [3-(1H-tetrazol-5-yl)-9H-thioxathen-9-one s.s dioxide, reference compound] it was > 0.1 mM and < 1 mM. Consider `Oc1ccc(-n2ccnc2)cc1` [4-(1H--imidazol-1-yl)phenol, 4-(1H-imidazol-1-yl)phenol], for which the IC50 in assay [2] (setting [6]) was ~1 µM; against TXA2 Synthase, 1000 nM. The “Insulin Secretion Inhibition Index” value in assay [3] stood at 2.

As for `c1ccc(-c2ccncn2)cc1` [4-phenylpyrimidine], the half-maximal inhibitory concentration (IC50) in assay [1] (setting [5]) is ~0.1 mM. In the case of `Nc1cncc(C(=O)O)c1` [5-amino-3-pyridinecarboxylic acid], the IC50 in assay [1] (setting [4]) is > 1 mM. Consider `CC(C)Oc1ccc2oc3ccc(C(=O)O)cc3c(=O)c2c1` [7-(1-methylethoxy)-9-oxo-9H-xanthene-2-carboxylic acid], for which the half-maximal inhibitory concentration (IC50) was > 1000 µM in assay [2] (setting [6]) and > 1 mM in assay [1] (setting [5]).

In the case of `Cc1ccc2c(-c3ccccc3)nc(=O)n(C(C)C)c2c1` [7-methyl-1-(1-methylethyl)-4-phenyl-2(1H)-quinazolinone, reference compound], the half-inhibitory concentration (IC50) in assay [1] (setting [5]) is > 1 mM. For `CCOC(=O)C(=O)Cc1ccncn1` [Alpha-oxo-4-pyrimidinepropanoic acid ethyl ester], the IC50 in assay [2] (setting [6]) is > 100 µM and < 1000 µM. As to `N[C@@H]1C(=O)N2C(C(=O)O)=C(CSc3ccncn3)CS[C@H]12` [[6R--(6α,7β)]-2-carboxy-8-oxo-3-[(4-pyrimidinylthio)-methyl]5-thia-1-azabicyclo-[4.2.0]oct-2-en-7-aminum hydroxide inner salt], in assay [2] (setting [6]), the IC50 was > 100 µM and < 1000 µM. On the same count and under the same terms, as for `O=C(NN=Cc1c(O)ccc2ccccc12)c1cccnc1` [[(2-hydroxy-1-naphthalenyl)methylene]hydrazide 3-pyridinecarboxylic acid], the figure is ~100 µM.

Values taken from patent publication US4731363A, “Thromboxane synthase inhibitors as insulin lowering agents and antiobesity agents” (priority 1986, dated 1988).
